Tested on: iFA phenotype of mesenchymal-like cells on 13 kPa hydrogels
Test: iFA-prevention phenotypic high-content drug screen (iFA model)
Type: cell-based, human
Description: Mesenchymal-like cells were cultured on 13 kPa functionalized polyacrylamide gels that were prepared as follows. 187.5 μl of 40% acrylamide, 60 μl of 2% bis-acrylamide and 8.55 μl of sodium bisulfate in a final volume of 990 μl of water was incubated for 20 min at room temperature to degas the mixture. To this mixture, 0.10% ammonium persulfate and 0.15% TEMED were added, mixed and 100 μl of the solution was added onto a 0.4% 3-(Trimethoxysily) propyl methacrylate pH 3.5 treated coverslip. A 2% dimethyl dichlorosilane in chloroform treated round glass coverslip was then inverted on the acrylamide solution and allowed to polymerize for 15 min between the two surfaces. The top coverslip was gently removed, and the bottom coverslips with the hydrogel were transferred to appropriate multi-well low adherent tissue culture plate containing coupling buffer (0.1 M sodium phosphate dibasic, 0.1 M sodium phosphate monobasic) pH 8. To functionalize the hydrogel, 1 part of 0.1 M p-benzoquinone in dioxane was added to the hydrogels containing 4 parts of coupling buffer and incubated at 37° C. for 30 min. The gel was then successively washed with 20% dioxane in water, water, 0.1 M sodium acetate buffer at pH 4.0 containing 1.0 M sodium chloride, 0.1 M sodium bicarbonate solution at pH 8.5 containing 1.0 M sodium chloride, and finally with coupling buffer at pH 7.5. The hydrogels were then coated with 0.1% gelatin for 2 hrs prior to seeding the cells. Cells were seeded at a density of 3000 cells/cm^2.
A phenotypic high-content drug screen was prepared to identify compounds capable of preventing the iFA phenotype in a 96-well format. An ImageXpress XL high-throughput imager with a 4× Plan objective (N/A 0.20) was used with image based focusing. Briefly, 100 μL media were plated in each well of 96 well plate using a Thermo Multidrop non-contact dispenser. Using a custom V&P pin tool mounted to a Beckman FX liquid handler, 1.5 μL compounds or DMSO were added. Mesenchymal-like cells were added as a suspension using the Multidrop at a density of 3.5×10^3 cells/well. The resulting compound concentration was 10 μM. Cells were imaged after 7 days of incubation at 37° C. and 5% CO2: A final of 0.5 μg/ml of Calcein AM and/or 10 μg/ml propidium iodide (viability dye) with 1 μg/ml Hoechst 33342 were added and imaged using the ImageXpress XL system. Data mining was performed using a custom module consisting of the following steps: The image background was removed using a top-hat filter with 25 μm round shape polisher. Next, cellular aggregates and individual spindle-shaped cells were identified. Aggregates of cells were defined by size with a cut-off of 60 to 200 micron and an intensity of at least 200 gray scales over background. Individual spindle-shaped cells were identified as smaller objects with cut-offs from 15 to 100 micron and a lower intensity of at least 70 gray scales over background.
Additional morphometric measurements were made by counting labeled cell nuclei and measuring total area covered with cells per well. The data resulting from the screen were batch exported through MetaXpress and uploaded into a Collaborative Drug Discovery (CDD) cloud based database (Ekins and Bunin, 2013, Methods in molecular biology 993, 139-154.). Hits were selected on a cut-off of more than 3 standard deviations from mean using data normalized to reference wells in each plate. IC50 values (the half maximal inhibitory concentration) from confirmation experiments were calculated from dose-response signal curves using the Prism software (GraphPad Software).
Signal-to-background (S/B) ratio, standard variation and variation coefficients were calculated as the signal of DMSO treated wells divided by the signal of the hit compound (AA5) treated wells. […]

IC50 (Homo sapiens, FIG. 16B, read-out: IC50 (dose response, iFA phenotype)): 0.9 µM
Structure (SMILES): Cc1c(C(=O)Nc2nc3ccccc3s2)sc2nc3cc4c(cc3cc12)OCO4 [AA5]
Prevention of the iFA phenotype (0.6 μM-10 μM AA5, Calcein AM / Hoechst 33342 (FIG. 17A)): Full prevention of phenotype was seen at low micromolar concentrations
Dose response (20 point dose course, picomolar to millimolar): +++ (+++ = strong effect)
Efficacy in secondary screen (assay repeated with compound sourced commercially or from additional library materials): +++ (+++ = strong effect)
Efficacy in primary screen (library compound plated with cells on day 1 on hydrogel, phenotype on day 7, 10 μM): +++ (+++ = strong effect)

From patent US20200352918A1, “COMPOUNDS AND METHODS FOR TREATING OR PREVENTING FIBROSIS” (priority 2019, published 2020)
